Where two headings read alike, the source gives them in different places.
Key:
[1] = tested on: human breast cancer cell lines; experiment: Cytotoxicity, NCI disease-oriented antitumor screening, breast cancer cell lines; assay type: cell-based; settings: range of GI50's for the breast cancer cell lines, read-out: Cytotoxic activity (GI50), breast
Text: (§1) Compounds were subjected to the disease-oriented antitumor screening on 60 cancer cell lines in the National Cancer Institute of the U.S.A. (Grever, M. R. et al., Seminars in Oncology 1992, 19, 622~638). Results of cytotoxicity are summarized in Table 1, GI50 values represent the concentrations corresponding to 50% of growth inhibition.

[2] = tested on: human renal cancer cell lines; experiment: Cytotoxicity, NCI disease-oriented antitumor screening, renal cancer cell lines; assay type: cell-based; settings: range of GI50's for the renal cancer cell lines, read-out: Cytotoxic activity (GI50), renal
Text: as §1

[3] = tested on: human prostate cancer cell lines; experiment: Cytotoxicity, NCI disease-oriented antitumor screening, prostate cancer cell lines; assay type: cell-based; settings: range of GI50's for the prostate cancer cell lines, read-out: Cytotoxic activity (GI50), prostate
Text: as §1

CNS SNB75 cell line = experiment: Cytotoxicity, NCI disease-oriented antitumor screening, CNS SNB75 cell line; assay type: cell-based; settings: Homo sapiens, SNB-75
Text: as §1

[4] = tested on: human colon cancer cell lines; experiment: Cytotoxicity, NCI disease-oriented antitumor screening, colon cancer cell lines; assay type: cell-based; settings: range of GI50's for the colon cancer cell lines, read-out: Cytotoxic activity (GI50), colon
Text: as §1

[5] = tested on: human ovarian cancer cell lines; experiment: Cytotoxicity, NCI disease-oriented antitumor screening, ovarian cancer cell lines; assay type: cell-based; settings: range of GI50's for the ovarian cancer cell lines, read-out: Cytotoxic activity (GI50), ovarian
Text: as §1

[6] = tested on: human lung cancer cell lines; experiment: Cytotoxicity, NCI disease-oriented antitumor screening, lung cancer cell lines; assay type: cell-based; settings: range of GI50's for the lung cancer cell lines, read-out: Cytotoxic activity (GI50), lung
Text: as §1

[7] = tested on: human CNS tumor cell lines; experiment: Cytotoxicity, NCI disease-oriented antitumor screening, CNS tumor cell lines; assay type: cell-based; settings: for selective cytotoxicity on human CNS tumor cell lines: in words
Text: as §1

CNS U251 cell line = experiment: Cytotoxicity, NCI disease-oriented antitumor screening, CNS U251 cell line; assay type: cell-based; settings: Homo sapiens, U-251, read-out: Cytotoxic activity (GI50), CNS
Text: as §1

[8] = tested on: glycinamide ribonucleotide transformylase (GAR-Tfase); settings: in words; Baldwin et al, 1991; cited from earlier work
[9] = CNS SNB75 cell line, read-out: Cytotoxic activity (GI50), CNS
[10] = SNB75 CNS cell line, read-out: GI50

Cc1nc(N)[nH]c(=O)c1N1CCN(c2ccc(C#N)cc2)CC1 [Compound 6, 4-[4-(2-Amino-6-methyl-4(3H)-oxopyrimidin-5-yl)piperazin-1-yl]benzonitrile]
GI50 [1]: > 100 µM | GI50 [2]: > 100 µM | GI50 [3]: > 100 µM | GI50 (CNS SNB75 cell line; [9]): 40 nM | GI50 [4]: > 100 µM | GI50 [5]: 93 µM | GI50 [6]: > 100 µM | selective cytotoxicity on human CNS tumor cell lines [7]: selective cytotoxicity

Cc1nc(N)[nH]c(=O)c1N1CCN(c2ccc(C(=O)O)cc2)CC1 [Compound 7, 4-[4-(2-Amino-6-methyl-4(3H)-oxopyrimidin-5-yl)piperazin-1-yl]benzoic acid]
GI50 [1]: > 100 µM | GI50 [2]: 1.39 µM | GI50 [3]: > 100 µM | GI50 [4]: > 100 µM | GI50 [5]: > 100 µM | GI50 [6]: > 100 µM | GI50 ([7]; Homo sapiens, CNS cell lines, no single line specified, read-out: Cytotoxic activity (GI50), CNS): > 100 µM

CCOC(=O)CCC(NC(=O)c1ccc(N2CCN(c3c(C)nc(N)[nH]c3=O)CC2)cc1)C(=O)OCC (stereo not shown) [Compound 8, Diethyl N-[4-[4-(2-Amino-6-methyl-4(3H)-oxopyrimidin-5-yl)piperazin-1-yl]benzoyl]glutamic acid]
GI50 [1]: > 100 µM | GI50 [2]: > 100 µM | GI50 [3]: > 100 µM | GI50 (CNS SNB75 cell line; [9]): < 10 nM | GI50 (CNS SNB75 cell line; [10]): < 10 nM | GI50 [4]: > 100 µM | GI50 [5]: > 100 µM | GI50 [6]: > 100 µM | selective cytotoxicity on human CNS tumor cell lines [7]: selective cytotoxicity

Cc1nc(N)[nH]c(=O)c1N1CCN(c2ccc(C(=O)NC(CCC(=O)O)C(=O)O)cc2)CC1 (stereo not shown) [Compound 9, N-[4-[4-(2-Amino-6-methyl-4-(3H)-oxopyrimidin-5-yl)piperazin-1-yl]benzoyl]glutamic acid]
GI50 [1]: > 100 µM | GI50 [2]: > 100 µM | GI50 [3]: > 100 µM | GI50 (CNS SNB75 cell line; [9]): < 10 nM | GI50 (CNS SNB75 cell line; [10]): < 10 nM | GI50 [4]: > 100 µM | GI50 [5]: > 100 µM | GI50 [6]: > 100 µM | selective cytotoxicity on human CNS tumor cell lines [7]: selective cytotoxicity

Cc1nc(N)[nH]c(=O)c1N1CCN(c2ccc([N+](=O)[O-])cc2)CC1 [Compound 10, 2-Amino-6-methyl-5-[4-(4-nitrophenyl)piperazin-1-yl]pyrimidin-4(3H)-one]
GI50 [1]: > 100 µM | GI50 [2]: > 100 µM | GI50 [3]: > 100 µM | GI50 (CNS SNB75 cell line; [9]): < 10 nM | GI50 (CNS SNB75 cell line; [10]): < 10 nM | GI50 [4]: > 100 µM | GI50 [5]: > 100 µM | GI50 [6]: > 100 µM | selective cytotoxicity on human CNS tumor cell lines [7]: selective cytotoxicity

Cc1nc(N)[nH]c(=O)c1N1CCN(c2ccc(S(=O)(=O)N(Cc3ccccc3)Cc3ccccc3)cc2)CC1 [Compound 11]
GI50 [1]: 2.1 to 37 µM | GI50 [2]: 3.1 to 27 µM | GI50 [3]: 1.9 to 3.5 µM | GI50 [4]: 55 µM | GI50 (CNS U251 cell line): 3.68 µM | GI50 [5]: 0.7 to 16 µM | GI50 [6]: 4.8 to 79 µM

Cc1nc(N)[nH]c(=O)c1N1CCN(c2ccc(S(N)(=O)=O)cc2)CC1 [Compound 12, 4-[4-(2-Amino-6-methyl-4-(3H)-oxopyrimidin-5-yl)-piperazin-1-yl]benzenesulfonamide]
GI50 [1]: > 100 µM | GI50 [2]: > 100 µM | GI50 [3]: > 100 µM | GI50 (CNS SNB75 cell line; [9]): 100 nM | GI50 [4]: > 100 µM | GI50 [5]: > 100 µM | GI50 [6]: > 100 µM | selective cytotoxicity on human CNS tumor cell lines [7]: selective cytotoxicity

Nc1nc2c(c(=O)[nH]1)CC(CCc1ccc(C(=O)N[C@@H](CCC(=O)O)C(=O)O)cc1)CN2 (stereo partly shown) [DDATHF, 5,10-dideaza-5,6,7,8-tetrahydrofolic acid]
inhibition of GAR-Tfase [8]: potent inhibitor

— patent US5670508A, “2-amino-6-alkyl-5-(4-substituted-1-piperazinyl) pyrimidin-4-ones, the preparation and use thereof” (National Science Council, priority 1995, dated 1997)
